Measurements: paper PMC9612427 (Journal of the American Chemical Society, 2022)
Values belong to the molecule of their own block, whether it stands above or below them.

Assays:
P-gp [1] = biological target: P-gp (Homo sapiens, UniProt P08183); test: calcein-AM P-gp inhibition assay in MDR1-MDCK cells; type: cell-based
P-glycoprotein (MDR1) = P-glycoprotein (MDR1) (Homo sapiens, UniProt P08183); test: MDR1-MDCK transwell assay; conditions: for efflux ratio (ER): 10 μM compound, 90 min, substrate when ER ≥ 2.0
Chain of P-glycoprotein (MDR1) (P08183 whole entry): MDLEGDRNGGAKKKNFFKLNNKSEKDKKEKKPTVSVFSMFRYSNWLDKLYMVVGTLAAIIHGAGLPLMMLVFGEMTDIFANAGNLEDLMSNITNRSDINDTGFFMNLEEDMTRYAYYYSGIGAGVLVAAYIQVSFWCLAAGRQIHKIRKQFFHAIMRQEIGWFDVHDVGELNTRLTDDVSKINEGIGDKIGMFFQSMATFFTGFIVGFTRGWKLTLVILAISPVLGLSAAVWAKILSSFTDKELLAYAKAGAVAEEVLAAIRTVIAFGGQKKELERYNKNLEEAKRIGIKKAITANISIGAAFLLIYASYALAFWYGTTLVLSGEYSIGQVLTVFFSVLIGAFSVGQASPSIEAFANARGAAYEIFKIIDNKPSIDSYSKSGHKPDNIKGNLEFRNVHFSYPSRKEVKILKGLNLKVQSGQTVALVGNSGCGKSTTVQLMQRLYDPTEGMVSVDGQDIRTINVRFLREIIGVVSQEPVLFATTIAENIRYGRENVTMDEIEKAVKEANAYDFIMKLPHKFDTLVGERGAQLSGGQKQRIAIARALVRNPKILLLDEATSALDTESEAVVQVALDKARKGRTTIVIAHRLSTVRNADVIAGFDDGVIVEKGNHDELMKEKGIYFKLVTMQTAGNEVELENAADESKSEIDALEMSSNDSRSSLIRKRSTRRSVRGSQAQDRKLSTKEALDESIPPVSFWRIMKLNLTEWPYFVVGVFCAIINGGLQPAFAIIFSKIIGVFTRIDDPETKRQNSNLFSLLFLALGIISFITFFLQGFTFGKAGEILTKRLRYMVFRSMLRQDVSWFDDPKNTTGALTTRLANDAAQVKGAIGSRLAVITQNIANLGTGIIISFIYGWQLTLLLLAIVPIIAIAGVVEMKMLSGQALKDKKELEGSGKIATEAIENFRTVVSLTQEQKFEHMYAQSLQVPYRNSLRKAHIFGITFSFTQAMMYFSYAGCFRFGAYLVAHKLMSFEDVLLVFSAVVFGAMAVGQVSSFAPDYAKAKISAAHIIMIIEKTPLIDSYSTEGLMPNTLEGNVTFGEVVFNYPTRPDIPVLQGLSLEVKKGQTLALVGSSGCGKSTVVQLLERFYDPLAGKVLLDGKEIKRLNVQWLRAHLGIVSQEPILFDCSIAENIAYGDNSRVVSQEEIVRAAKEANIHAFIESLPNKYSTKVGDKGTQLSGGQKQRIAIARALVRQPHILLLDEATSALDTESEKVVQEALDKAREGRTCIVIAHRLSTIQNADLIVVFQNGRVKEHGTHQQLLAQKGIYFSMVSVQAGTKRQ

[2] = system: MAPK signaling (phospho-MEK1/2, phospho-ERK1/2) in A375 cells; test: MEK1/2 and ERK1/2 phosphorylation; type: cell-based; conditions: for inhibition of ERK1/2 phosphorylation after 24 h: highest concentrations (10 μM)
[3] = BBB penetrance: brain and serum drug levels after single IV injection; type: in vivo, mice; conditions: for Kp at 60 min: mouse, brain and serum, iv, 25 mg/kg
[4] = system: intracranially implanted A375 melanoma cells; test: A375 intracranial mouse model of metastatic melanoma; type: in vivo; conditions: 50 mg/kg IP once a day, two cycles of 5 days, 10 doses; athymic nude mice
[5] = system: V600E BRAF tumors in the brain; conditions: cited from earlier work
P-gp [6] = test: P-gp in vivo assay; conditions: mice
[7] = system: V600E BRAF melanoma cell lines; test: 72 h cell viability assay, panel of V600E BRAF melanoma cell lines; type: cell-based; conditions: read-out: IC50, panel of V600E BRAF melanoma cell lines
cell lines with WT BRAF = test: 72 h cell viability assay, cell lines with WT BRAF; type: cell-based; conditions: read-out: IC50, cell lines with WT BRAF
[8] = system: MAPK signaling in CHL-1, a WT BRAF melanoma cell line; test: MEK1/2 and ERK1/2 phosphorylation; type: cell-based; conditions: CHL-1 (WT BRAF), 1 h, identical treatment
[9] = system: AM-38 (V600E BRAF) and U118MG, T98G, U87 (WT BRAF) glioma cell lines; test: cell culture cytotoxicity against glioma cell lines; type: cell-based

Chain of P-gp (Homo sapiens, UniProt P08183) (P08183 whole entry): as above

SMILES: C=C[C@H]1C[N@@]2CC[C@H]1C[C@@H]2[C@@H](O)c1ccnc2ccc(OC)cc12 [quinidine]
P-gp inhibition (calcein-AM fluorescence) (P-gp [1]): robust inhibition
efflux ratio (ER) (P-glycoprotein (MDR1); MDR1-MDCK transwell): high ERs

SMILES: COC(=O)c1cn2c3c(c(N4CCN(C)CC4)c(F)cc3c1=O)OC[C@@H]2C [compound 7]
efflux ratio (ER) (P-glycoprotein (MDR1); MDR1-MDCK transwell): 5.66

SMILES: CC(C)(C)c1nc(-c2cccc(NS(=O)(=O)c3c(F)cccc3F)c2F)c(-c2ccnc(N)n2)s1 [dabrafenib]
inhibition of ERK1/2 phosphorylation after 24 h [2]: diminished inhibition
Kp at 60 min [3]: 0.0014 to 0.0069
median survival [4]: 39 days
duration of intracranial response ([5]; combined with trametinib, melanoma brain metastases, clinical trials): 6.5 months
fold increase of brain-to-serum ratio by P-gp inhibition (elacridar) (P-gp [6]; 15 min, 2.5 mg/kg elacridar IV 30 min before 25 mg/kg compound IV): 4.3 fold

SMILES: COC(=O)N[C@@H](C)CNc1nccc(-c2cn(C(C)C)nc2-c2cc(Cl)cc(NS(C)(=O)=O)c2F)n1 [encorafenib]
Kp at 60 min [3]: 0.0014 to 0.0069

SMILES: COc1cc2c(cc1OC)CN(CCc1ccc(NC(=O)c3cccc4c(=O)c5cccc(OC)c5[nH]c34)cc1)CC2 [elacridar]
P-gp inhibition (calcein-AM fluorescence) (P-gp [1]): robust inhibition

SMILES: CCCS(=O)(=O)Nc1cc(Cl)cc(-c2nc(C(C)(C)C)sc2-c2ccnc(N)n2)c1F [everafenib]
IC50 [7]: 0.002 to 0.01 µM
IC50 (cell lines with WT BRAF): > 1 µM
inhibition of MAPK signaling (MEK1/2 and ERK1/2 phosphorylation) ([2]; 1 h, 1 μM everafenib, 10 μM everafenib-CO2H): strongly inhibited
inhibition of ERK1/2 phosphorylation after 24 h [2]: sustained
inhibition of MAPK signaling [8]: not observed
brain-to-serum ratio ([3]; mice, 60 min after single 25 mg/kg IV injection): 0.286 ng/g:ng/mL
median survival [4]: 50.5 days
cytotoxicity against AM-38 ([9]; AM-38, glioblastoma cell line with V600E BRAF): comparable cytotoxicity to dabrafenib
activity against glioma cell-lines with WT BRAF ([9]; U118MG, T98G, U87): no activity
permeability (Papp) (P-glycoprotein (MDR1); MDR1-MDCK transwell, A–B and B–A directions): 4.9 to 6.4 ×10⁻⁶ cm/s
potentiation of brain penetrance with elacridar (P-gp [6]; time not given): did display potentiation with elacridar

The next lines start with results.

efflux ratio (ER) (P-glycoprotein (MDR1); MDR1-MDCK transwell): high ERs
SMILES: Cn1cnc2c(F)c(Nc3ccc(Br)cc3F)c(C(=O)NOCCO)cc21 [binimetinib]

efflux ratio (ER) (P-glycoprotein (MDR1); MDR1-MDCK transwell): high ERs
SMILES: COc1cc2nc(N3CCN(C(=O)c4ccco4)CC3)nc(N)c2cc1OC [prazosin]

Kp at 60 min [3]: 0.0014 to 0.0069
SMILES: CCCS(=O)(=O)Nc1ccc(F)c(C(=O)c2c[nH]c3ncc(Cl)cc23)c1F [PLX4720]
inhibition of ERK1/2 phosphorylation after 24 h [2]: diminished inhibition

efflux ratio (ER) (P-glycoprotein (MDR1); MDR1-MDCK transwell): high ERs
SMILES: CCCS(=O)(=O)Nc1ccc(F)c(C(=O)c2c[nH]c3ncc(-c4ccc(Cl)cc4)cc23)c1F [vemurafenib]
patients responding ([5]; pleomorphic xanthoastrocytoma patients, histology agnostic trial): four out of seven

Papp at 90 min, 10 μM (P-glycoprotein (MDR1); human, MDCK-MDR1): 1.2 ×10⁻⁶ cm/s
SMILES: CC(C)(C)c1ccc(C(O)CCCN2CCC(C(O)(c3ccccc3)c3ccccc3)CC2)cc1 (stereo not shown) [terfenadine]
